Measurements from EP4635944A1, “2-AZABICYCLO[3.1.1]HEPTANE COMPOUND” (Daiichi Sankyo Company, Limited, priority 2022, dated 2024).

Tests used:
[1] = Evaluation of metabolic stability in human liver microsomes; format: in vitro ADME; conditions: for Human metabolic stability Residual ratio (%): test compound 1 µM, human liver microsomes 0.5 mg/mL, 30 minutes at 37°C; for metabolic stability compared to the corresponding compounds that were not deuterated: human liver microsomes, 30 minutes, deuterated at specific positions
Description: Evaluation of metabolic stability of OX2R agonist
The test compound (final concentration was 1 µM, dissolved in DMSO/acetonitrile = 1/99), pooled human liver microsomes (final concentration was 0.5 mg/mL), and sodium phosphate buffer (pH 7.4, final concentration was 100 mM) were admixed and preincubated at 37°C for 15 minutes. Thereafter, a mixed solution of glucose-6-phosphate (final concentration was 10 mM), glucose-6-phosphate dehydrogenase (final concentration was 1 U/mL), and magnesium chloride (final concentration was 3.3 mM) was added and a certain amount of the mixture was collected. Then, an acetonitrile/methanol mixed solution (75/25, v/v) containing a 4.5-fold volume of internal standard substances (final concentrations: phenacetin: 1 ng/mL, niflumic acid: 15 ng/mL, furosemide: 20 ng/mL) was added to stop the reaction (0 min sample). Subsequently, β-nicotinamide adenine dinucleotide phosphate (final concentration was 1 mM) was added, and after 30 minutes of incubation at 37°C, a certain amount of the mixture was collected, to which an acetonitrile/methanol mixed solution (75/25, v/v) containing a 4.5-fold volume of the internal standard substances was added to stop the reaction (30 min sample). For both samples, a portion of the supernatant after centrifugation (about 1200 × g, 4°C, 15 minutes) was injected into a liquid chromatograph tandem quadrupole mass spectrometer (LC-MS/MS) for analysis. The metabolic stability was evaluated by comparing the test compound/internal standard substance ratio of the 30 min sample with the 0 min sample and calculating the residual ratio of the test compound. […]

human OX2R = molecular target: T1, human OX2R (Homo sapiens, UniProt O43614); assay: Evaluation of OX2R agonist activity (intracellular calcium, CHO-K1 cells with forced expression of human OX2R); format: cell-based; conditions: CHO-K1 cells expressing human OX2R; 100% = 5 µM of the reference compound; read-out: hOX2R EC50
T1 construct: host or cells: CHO-K1 (Chinese Hamster Ovary K1)
T1 sequence (O43614 1-444): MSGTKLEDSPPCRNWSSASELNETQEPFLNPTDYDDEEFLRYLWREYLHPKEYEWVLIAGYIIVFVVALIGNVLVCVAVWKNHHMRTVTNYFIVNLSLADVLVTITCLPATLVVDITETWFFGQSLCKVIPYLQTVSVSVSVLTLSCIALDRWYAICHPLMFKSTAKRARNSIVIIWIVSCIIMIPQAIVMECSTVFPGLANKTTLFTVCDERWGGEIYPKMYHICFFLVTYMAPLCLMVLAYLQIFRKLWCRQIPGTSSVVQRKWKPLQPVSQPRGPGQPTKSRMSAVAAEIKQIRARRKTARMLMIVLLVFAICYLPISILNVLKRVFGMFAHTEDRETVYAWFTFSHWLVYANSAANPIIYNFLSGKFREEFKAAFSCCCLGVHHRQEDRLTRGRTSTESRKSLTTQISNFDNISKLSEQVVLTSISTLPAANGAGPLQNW
Summary of the method: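 Cells seeded 7500/well, cultured 24 h, loaded with Fluo 4-AM (2.5 µg/mL final) plus probenecid for 30 min. Calcium response read as 480/540 nm excitation ratio; max–min signal 5–7 s after compound addition, normalized to buffer (0%) and 5 µM reference agonist (100%). EC50 from concentration series; 0.5% DMSO final.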

[2] = Evaluation of ERM production (GSH adduct detection in human liver microsomes); format: in vitro ADME; conditions: test compound 500 µM, human liver microsomes 2 mg/mL, GSH/SI-GSH, 37°C for 60 minutes; negative = no metabolite GSH adduct pair peak
Description: Evaluation of ERM production from OX2R agonist
The test compound (final concentration was 500 µM, dissolved in DMSO/acetonitrile = 1/9), pooled human liver microsomes (final concentration was 2 mg/mL), L-glutathione reduced (GSH, final concentration was 0.5 mM), potassium phosphate buffer (pH 7.4, final concentration was 100 mM), and stable isotope labeled GSH (SI-GSH, final concentration was 0.5 mM) were admixed and preincubated at 37°C for 3 minutes. Thereafter, a mixed solution of glucose-6-phosphate (final concentration was 25 mM), β-nicotinamide adenine dinucleotide phosphate (final concentration was 0.25 mM), glucose-6-phosphate dehydrogenase (final concentration was 2 U/mL), and magnesium chloride (final concentration was 10 mM) was added, and incubation was performed at 37°C for 60 minutes. After the incubation, the reaction was stopped by adding a 2-fold volume of acetonitrile. A portion of the supernatant after centrifugation (about 1200 × g, 4°C, 15 minutes) was injected into a liquid chromatograph quadrupole time-of-flight mass spectrometer (Q-Tof) for analysis. The mass number of metabolites, GSH adduct and SI-GSH adduct, predicted from the chemical structural formula of the test compound was calculated, and the presence of the corresponding peaks in the measurement sample was checked. Peaks with the same retention time and approximately equal peak area of the detected peaks of the metabolites, GSH adduct and SI-GSH adduct, were extracted as pair peaks. The presence of a pair peak determined to be a metabolite GSH adduct was considered positive for ERM production potential, whereas the absence of such a peak was considered negative for ERM production potential.

Structure (SMILES)	Human metabolic stability Residual ratio (%) [1]	EC50 (human OX2R)	ERM production potential [2]	metabolic stability compared to the corresponding compounds that were not deuterated [1]
C[C@@H](O)C(=O)N1C2CC(F)(C2)[C@H](NS(C)(=O)=O)[C@@H]1Cc1cccc(-c2ccccc2)c1F [Example 53, N-{(3S,4R)-5-Fluoro-3-[(2-fluoro[biphenyl]-3-yl)methyl]-2-[(2R)-2-hydroxypropanoyl]-2-azabicyclo[3.1.1]heptan-4-yl}methanesulfonamide]	49%	19 nM	–	–
C[C@@H](O)C(=O)N1C2CC(C2)[C@H](NS(C)(=O)=O)[C@@H]1Cc1cccc(-c2ccccc2)c1F [Example 25, N-{(3S,4S)-3-[(2-Fluoro[biphenyl]-3-yl)methyl]-2-[(2R)-2-hydroxypropanoyl]-2-azabicyclo[3.1.1]heptan-4-yl}methanesulfonamide]	34%	24 nM	–	–
CC(C)(O)C(=O)N1C2CC(C2)C(NS(C)(=O)=O)C1Cc1cc(F)cc(-c2cccc(Cl)c2)c1F (single isomer, unassigned) [Example 67, N-[(3S,4S)-3-[(3'-Chloro-2,5-difluoro[biphenyl]-3-yl)methyl]-2-(2-hydroxy-2-methylpropanoyl)-2-azabicyclo[3.1.1]heptan-4-yl]methanesulfonamide or N-[(3R,4R)-3-[(3'-chloro-2,5-difluoro[biphenyl]-3-yl)methyl]-2-(2-hydroxy-2-methylpropanoyl)-2-azabicyclo[3.1.1]heptan-4-yl]methanesulfonamide]	–	70 nM	negative	–
CS(=O)(=O)N[C@H]1C2CC(C2)N(C(=O)C2(O)CCC2)[C@H]1Cc1cccc(-c2ccccc2)c1F [Example 62, N-{(3S,4S)-3-[(2-Fluoro[biphenyl]-3-yl)methyl]-2-[(1-hydroxycyclobutyl)carbonyl]-2-azabicyclo[3.1.1]heptan-4-yl}methanesulfonamide]	–	14 nM	negative	–
CC(C)(O)C(=O)N1C2CC(F)(C2)[C@H](NS(C)(=O)=O)[C@@H]1Cc1cc(F)cc(-c2ccccc2)c1F [Example 74, N-[(3S,4R)-3-[(2,5-Difluoro[biphenyl]-3-yl)methyl]-5-fluoro-2-(2-hydroxy-2-methylpropanoyl)-2-azabicyclo[3.1.1]heptan-4-yl]methanesulfonamide]	–	72 nM	negative	–
C[C@@H](O)C(=O)N1C2CC(F)(C2)[C@H](NS(C)(=O)=O)[C@@H]1Cc1cc(F)cc(-c2ccccc2)c1F [Example 63, N-{(3S,4R)-3-[(2,5-Difluoro[biphenyl]-3-yl)methyl]-5-fluoro-2-[(2R)-2-hydroxypropanoyl]-2-azabicyclo[3.1.1]heptan-4-yl}methanesulfonamide]	38%	22 nM	–	–
[2H]C([2H])([2H])C([2H])(O)C(=O)N1C2CC(F)(C2)C(NS(=O)(=O)CC)C1Cc1cc(F)cc(-c2ccccc2)c1F (single isomer, unassigned) [Example 95, N-{3-[(2,5-Difluoro[biphenyl]-3-yl)methyl]-5-fluoro-2-[2-hydroxy(^2H4)propanoyl]-2-azabicyclo[3.1.1]heptan-4-yl}ethanesulfonamide]	52%	19 nM	–	improved metabolic stability
[2H][C@](C)(O)C(=O)N1C2CC(F)(C2)[C@H](NS(C)(=O)=O)[C@@H]1Cc1cccc(-c2ccccc2)c1F [Example 99, N-{(3S,4R)-5-Fluoro-3-[(2-fluoro[biphenyl]-3-yl)methyl]-2-[(2R)-2-hydroxy(2-^2H)propanoyl]-2-azabicyclo[3.1.1]heptan-4-yl}methanesulfonamide]	78%	27 nM	–	improved metabolic stability
[2H][C@](C)(O)C(=O)N1C2CC(F)(C2)[C@H](NS(C)(=O)=O)[C@@H]1Cc1cc(F)cc(-c2ccccc2)c1F [Example 100, N-{(3S,4R)-3-[(2,5-Difluoro[biphenyl]-3-yl)methyl]-5-fluoro-2-[(2R)-2-hydroxy(2-^2H)propanoyl]-2-azabicyclo[3.1.1]heptan-4-yl}methanesulfonamide]	70%	43 nM	–	improved metabolic stability
CCS(=O)(=O)NC1C(Cc2cc(F)cc(-c3ccccc3)c2F)N(C(=O)[C@@H](C)O)C2CC1(F)C2 (single isomer, unassigned) [Example 91]	25%	39 nM	–	–
CS(=O)(=O)N[C@H]1C2CC(C2)N(C(=O)CO)[C@H]1Cc1cccc(-c2cc(F)cc(F)c2)c1F [Example 34, N-{(3S,4S)-2-(Hydroxyacetyl)-3-[(2,3',5'-trifluoro[biphenyl]-3-yl)methyl]-2-azabicyclo[3.1.1]heptan-4-yl}methanesulfonamide]	–	289 nM	–	–
CCS(=O)(=O)N[C@@H]1[C@H](Cc2cccc(-c3ccccc3)c2F)N(C(=O)[C@@H](C)O)C2CC1(F)C2 (single isomer, unassigned) [Example 83]	–	19 nM	–	–
CC(C)S(=O)(=O)N[C@H]1C2CC(C2)N(C(=O)C(C)(C)O)[C@H]1Cc1cccc(-c2cc(F)cc(F)c2)c1F (single isomer, unassigned) [Example 4]	–	225 nM	–	–
C[C@@H](O)C(=O)N1C2CC(C2)[C@H](NS(C)(=O)=O)[C@@H]1Cc1cccc(-c2csc(Cl)c2)c1F [Example 68, N-{(3S,4S)-3-[3-(5-Chlorothiophen-3-yl)-2-fluorobenzyl]-2-[(2R)-2-hydroxypropanoyl]-2-azabicyclo[3.1.1]heptan-4-yl}methanesulfonamide]	–	37 nM	–	–
CC(C)(O)C(=O)N1C2CC(C2)[C@H](NS(C)(=O)=O)[C@@H]1Cc1cccc(-c2cc(F)cc(C(F)F)c2)c1F [Example 51, N-[(3S,4S)-3-{[3'-(Difluoromethyl)-2,5'-difluoro[biphenyl]-3-yl]methyl}-2-(2-hydroxy-2-methylpropanoyl)-2-azabicyclo[3.1.1]heptan-4-yl]methanesulfonamide]	–	33 nM	–	–
CC(C)(O)C(=O)N1C2CC(C2)[C@H](NS(C)(=O)=O)[C@@H]1Cc1cccc(-c2cccc(C(F)(F)F)c2)c1F [Example 18, N-[(3S,4S)-3-{[2-Fluoro-3'-(trifluoromethyl)[biphenyl]-3-yl]methyl}-2-(2-hydroxy-2-methylpropanoyl)-2-azabicyclo[3.1.1]heptan-4-yl]methanesulfonamide]	–	784 nM	–	–
CS(=O)(=O)NC1C2CC(C2)N(C(=O)C2CC2)C1Cc1ccnc(-c2cccc(Cl)c2)c1F (single isomer, unassigned) [Example 60, N-[3-{[2-(3-Chlorophenyl)-3-fluoropyridin-4-yl]methyl}-2-(cyclopropylcarbonyl)-2-azabicyclo[3.1.1]heptan-4-yl]methanesulfonamide]	–	75 nM	–	–
